One experiment has as its system Blood Glucose. The experiment in a line: Hypoglycemic effect (modified method by Dulin et al.). The format is in vivo, rat (Sprague-Dawley-strain male). As to conditions: 2 hours; for Blood Glucose Level: glucose-loaded fasted rats, control 134.6 ± 2.8. How it is done:
Groups of 10 Sprague-Dawley-strain male rats (weighing about 250 g each) which had fasted for 18 hours were used for measurement of hypoglycemic effect according to the modified method by Dulin et al. (Dulin et al, Proc. Soc. Expl. Med., 107, 245 (1961)). That is, 0.5 ml/100 g of 20% aqueous solution of glucose was subcutaneously administered into the backs of rats to prevent a decrease in blood glucose level because of the fasting. […] The obtained blood sample was allowed to stand for 30 minutes to complete the coagulation and was centrifuged to obtain the serum. Blood sugar level was measured according to the mutalotase GOD method (Trinder, Ann. Clin. Biochem., vol. 6, p. 24 ([…])).

The test system of a further experiment is serum free fatty acid. Description: Hypolipidemic effect: serum free fatty acid. It is filed as in vivo, rat (Wister strain male). Particulars: 100 mg/kg oral, 2 hours, fasted rats; for Serum Fatty Acid Decrease: vs control; for Serum Fatty Acid Level: control 0.51 ± 0.44. The procedure: (§1) The test drugs were orally administered to groups of 6 Wisterstrain male rats (each weighing approximately 210-250 g) which had fasted for 20 hours. 2 hours later, the serum was obtained in the same manner as described in (2). Serum triglyceride was measured by GPO-p-chlorophenol colorimetric determination (Richard et al., Clinical Chemistry, vol. 24, p. 1343 (1978)) and serum free fatty acid was measured according to the Acyl CoA Synthetase-Acyl CoA Oxidase method (Shimizu, et al., Biochem. Biophys. Res. Commun., vol. 91, p. 108 (1979)).

The subject of a further experiment is excreted sodium. The experiment in a line: Diuretic effect: excreted sodium in rats (Lipschitz method). The format is in vivo, rat (Long-Evans strain male). As to conditions: 20 mg/kg oral, within 1 day. How it is done:
20 mg/kg of the compound 1 of the present invention were orally administered to Long-Evans strain male rats (weighing about 130-150 g each), and the total amount of excreted sodium within 1 day was then measured according to the method by Lipschitz (JPFT, Vol. 79, p. 97 (1943)).

The test system of the next experiment is sodium in urine. The experiment in a line: Diuretic effect: sodium in urine in mice. It is filed as in vivo, mouse. Particulars: subcutaneous, up until 2 hours after the administration.
In the next experiment the test system is Serum Triglyceride. Description: Hypolipidemic effect: serum triglyceride. The format is in vivo, rat (Wister strain male). As to conditions: 100 mg/kg oral, 2 hours, fasted rats; for Serum Triglyceride Decrease: vs control; for Serum Triglyceride Level: control 33.5 ± 2.9. The procedure:
as §1

The test system of a further experiment is urine sugar. The experiment in a line: Urine sugar in glucose loaded rats. It is filed as in vivo, rat. As to conditions: 200 mg/kg oral. The procedure: In addition, 200 mg/kg of the compound 1 of the present invention were orally administered to glucose loaded rats and the urine sugar was measured.
Setting [1] is: Rattus norvegicus, 50 mg/kg oral, vs control, read-out: Blood Glucose Decrease.
[2] abbreviates: Rattus norvegicus, 200 mg/kg oral, vs control, read-out: Blood Glucose Decrease.

Consider `CCCCNC(=O)NS(=O)(=O)c1ccc(C)cc1` [Tolubutamide, reference compound], for which the “Blood Glucose Level” value worked out at 63.4 ± 4.7 mg/dL in the experiment on Blood Glucose (50 mg/kg oral) and 53.0 ± 4.5 mg/dL in the experiment with Blood Glucose (100 mg/kg oral). The inhibition in vivo at 50 mg/kg with Blood Glucose (setting [1]) came out at 52.9%. For the same molecule, in the experiment on Blood Glucose (Rattus norvegicus, 100 mg/kg oral, vs control, read-out: Blood Glucose Decrease), the inhibition in vivo at 100 mg/kg was determined as 60.6%.
In the case of `CN1C(=O)NC(=O)C1O` (stereo not shown) [compound 1, 5-hydroxy-1-methylhydantoin], in the experiment on serum free fatty acid, the “Serum Fatty Acid Decrease” value was 66% and the “Serum Fatty Acid Level” value is reported as 0.17 ± 0.01 mEq/dl. The “total amount of excreted sodium, ratio to control group” value in the experiment with excreted sodium amounted to 1.8 times. Also, in the experiment on sodium in urine, the “increase in the amount of sodium in urine as compared with the control group” value is reported as 50.5%. For the same molecule, in the experiment on Serum Triglyceride, the “Serum Triglyceride Decrease” value worked out at 68% and the “Serum Triglyceride Level” value is 10.7 ± 1.3 mg/dL. The “Blood Glucose Level” value in the experiment with Blood Glucose (25 mg/kg oral) worked out at 89.0 ± 4.1 mg/dL. Besides, the “Blood Glucose Level” value with Blood Glucose (50 mg/kg oral) is 87.1 ± 3.3 mg/dL. In addition, the “Blood Glucose Level” value in the experiment on Blood Glucose (200 mg/kg oral) worked out at 81.8 ± 4.0 mg/dL. In addition, the inhibition in vivo at 25 mg/kg in the experiment with Blood Glucose (Rattus norvegicus, 25 mg/kg oral, vs control, read-out: Blood Glucose Decrease) worked out at 33.9%. For the same molecule, in the experiment on Blood Glucose (setting [1]), the inhibition in vivo at 50 mg/kg was determined as 35.3%. Further, in the experiment with Blood Glucose (setting [2]), the inhibition in vivo at 200 mg/kg is 39.2%. Further, the “urine sugar, difference between medicated and control groups” value in the experiment with urine sugar was “No difference was found between the medicated and control groups”.
`CN1C(=O)NC(O)C1=O` (stereo not shown) [compound 2, 5-hydroxy-3-methylhydantoin]: in the experiment on serum free fatty acid, the “Serum Fatty Acid Decrease” value is 45% and the “Serum Fatty Acid Level” value is 0.28 ± 0.04 mEq/dl. In addition, in the experiment with Serum Triglyceride, the “Serum Triglyceride Decrease” value was 59% and the “Serum Triglyceride Level” value was 13.8 ± 0.9 mg/dL. The “Blood Glucose Level” value in the experiment on Blood Glucose (200 mg/kg oral) came to 115.5 ± 3.9 mg/dL. Also, in the experiment on Blood Glucose (setting [2]), the inhibition in vivo at 200 mg/kg came to 14.2%.
As for `CCN1C(=O)NC(=O)C1O` (stereo not shown) [compound 3, 5-hydroxy-1-ethylhydantoin], in the experiment on Blood Glucose (200 mg/kg oral), the “Blood Glucose Level” value was 76.0 ± 3.8 mg/dL. Further, in the experiment on Blood Glucose (setting [2]), the inhibition in vivo at 200 mg/kg worked out at 43.5%.
Consider `CCCCN1C(=O)NC(=O)C1O` (stereo not shown) [compound 4, 5-hydroxy-1-butylhydantoin], for which, in the experiment with serum free fatty acid, the “Serum Fatty Acid Decrease” value was 41% and the “Serum Fatty Acid Level” value is recorded as 0.30 ± 0.01 mEq/dl. Also, in the experiment on Serum Triglyceride, the “Serum Triglyceride Decrease” value is on record as 54% and the “Serum Triglyceride Level” value turned out to be 15.3 ± 2.4 mg/dL. Moreover, in the experiment on Blood Glucose (200 mg/kg oral), the “Blood Glucose Level” value worked out at 82.6 ± 3.6 mg/dL. For the same molecule, the inhibition in vivo at 200 mg/kg in the experiment with Blood Glucose (setting [2]) amounted to 38.6%.
As to `COC1C(=O)NC(=O)N1C` (stereo not shown) [compound 5, 5-methoxy-1-methylhydantoin], the “Blood Glucose Level” value in the experiment on Blood Glucose (200 mg/kg oral) stood at 109.4 ± 2.3 mg/dL. The inhibition in vivo at 200 mg/kg in the experiment on Blood Glucose (setting [2]) was 18.7%.
In the same order, the values of `O=C1NC(=O)N(C2CCCC2)C1O` (stereo not shown) [compound 15, 5-hydroxy-1-cyclopentylhydantoin] are 85.3 ± 5.9 mg/dL and 36.6%.
On to `O=C1NC(=O)N(C2CCCCC2)C1O` (stereo not shown) [compound 16, 5-hydroxy-1-cyclohexylhydantoin], for which the “Blood Glucose Level” value in the experiment with Blood Glucose (200 mg/kg oral) was found to be 89.6 ± 2.7 mg/dL. For the same molecule, the inhibition in vivo at 200 mg/kg in the experiment with Blood Glucose (setting [2]) is 33.4%.
Take `CN1CC(=O)NC1=O` [compound 23, 1methylhydantoin]: in the experiment on serum free fatty acid, the “Serum Fatty Acid Decrease” value is listed as 43% and the “Serum Fatty Acid Level” value came to 0.29 ± 0.01 mEq/dl. Besides, in the experiment with Serum Triglyceride, the “Serum Triglyceride Decrease” value came out at 45% and the “Serum Triglyceride Level” value came out at 18.5 ± 1.8 mg/dL. Further, the “Blood Glucose Level” value with Blood Glucose (200 mg/kg oral) was 106.9 ± 3.9 mg/dL. Also, the inhibition in vivo at 200 mg/kg in the experiment with Blood Glucose (setting [2]) worked out at 20.6%.

For the origin of these results see patent US4647574A, “Hypoglycemic hydantoin derivatives” (Nippon Zoki Pharmaceutical Co., Ltd., priority 1984, dated 1987).
